In this experiment the target is T1, human AMPK α2β2γ3 (Homo sapiens, UniProt O43741+P54646+Q9UGI9).
T1 construct: expressed in transfected cells; host or cells: HEK293AD cells, MaxCyte bulk electroporation
The experiment can be described thus: Primary cellular assay: γ3 associated phospho-Thr172 AMPK detection (custom pAMPK Surefire AlphaLISA) in α2β2γ3 bulk transiently transfected HEK293 cells. It is filed as cell-based. The note with it: activation of human AMPK α2β2γ3 (γ3 pThr172 AMPK signal) in transiently transfected HEK293 cells, 20 minutes compound incubation; for Emax: 20 min, read-out: Assay GMean Asy. Max (%); for Emax / Assay GMean Asy. Max (%): geometric mean of the asymptotic max; for EC50: geometric mean EC50, read-out: Assay GMean EC50. As to the method:
Primary Cellular Assay—γ3 Associated Phospho-Thr172 AMPK Detection in α2β2γ3 Bulk Transiently Transfected HEK293 Cells
The cellular potencies of the compounds were evaluated using a custom pAMPK Surefire AlphaLISA designed to assess γ3 associated phospho-Thr172 AMPK and modulation by small molecules in AMPK α2β2γ3 transiently transfected HEK293 cells.
A pAMPK Surefire AlphaLISA (PE-ASLU-PAMPK) assay available through Perkin Elmer was modified to selectively assess γ3 pThr172 AMPK content (as opposed to total pThr172 AMPK) by labeling a γ3 antibody with a CaptSure™ tag and substituting it for the total α1c/α2 AMPK labeled antibodies in the kit. In the modified assay, the overall abundance of γ3 AMPK is recognized by the CaptSure γ3 antibody and the phosphorylated AMPK is recognized by biotinylated pThr172 antibody. Subsequent reactivity with streptavitin donor beads and anti CaptSure conjugated acceptor beads brings the molecules into close proximity. Upon excitation at 680 nm, the donor bead converts ambient oxygen to a more excited singlet state which reacts with the acceptor bead and emits light at 520 to 620 nm. The intensity of the signal is proportional to the level of γ3 associated pThr172 AMPK phosphorylation.
In short, AMPK-α2+β2+γ3 MaxCyte bulk-transfected HEK293AD cells were thawed in growth media (DMEM High glucose+10% FBS) in a collagen-coated T150 flask and the cells were allowed to adhere and grow overnight in a 37° C. incubator. The following day, the cells were harvested and resuspended in plating medium (DMEM Low glucose+10% FBS) at a concentration of 100,000 cells per mL and 50 μL of this cell suspension was added to all wells of a 384-well plate using a Multidrop Combi. The cells were allowed to adhere and grow for 2 days in a 37° C. incubator. On assay day, compounds were diluted in 100% dimethyl sulfoxide (DMSO) in a 11 dose, half log dilution scheme and spotted in the cell plates at 1000× the final concentration. Compound incubations were performed in plating media for 20 minutes. Cells were washed with PBS, lysed and the signal was generated by subsequent additions of RB1 reagent from the kit, 1:1000 CaptSure γ3 labeled antibody in 1× immunoassay buffer, Anti-CaptSure acceptor beads and Streptavitin donor beads at final concentration of […]. The γ3 pThr172 AMPK signal was developed using EnVision™ multilabel reader (Perkin Elmer) using Alphascreen settings. The fluorescence emission was used to calculate the % effect relative to the HPE (30 μM) and ZPE (DMSO). EC50 curves were generated with the ActivityBase software using the XLfit model 205 to determine EC50 and Emax values.
For screening purposes, bulk AMPK-α2+β2+γ3 MaxCyte bulk transfection into HEK293AD cells were generated to support SAR screening as follows.
HEK293AD cells were seeded into 10 flasks at 2.7×10^7 cells per flask. The following day 12 mL of Trypl E dissociation reagent were added to each flask to lift the cells and the cells were then spun at 300×g for 5 minutes. Cells were washed once in MaxCyte EP buffer and then resuspended in MaxCyte EP buffer at 1×10^8 cells per mL. For transfection, 500×10^6 cells in 500 μl MaxCyte EP buffer were placed in a CL1.1 Processing Assembly (electroporation cell) with 1 mg/mL ([…]) of each of the plasmids pcDNA3.1(+)-human AMPK alpha 2, pcDNA3.1(+)-human AMPK beta 2 and pcDNA3.1(+)-human AMPK gamma 3 and the electroporation was carried out on the MaxCyte STX using the HEK293 electroporation protocol. Following electroporation, cells were transferred to a T175 flask containing growth medium (DMEM High glucose+10% FBS) and allowed to recover for 25 minutes, then the cells were resuspended to final volume of 900 mL and distributed into 6XT175 flasks and allowed to adhere and grow overnight in a 37° C. incubator. […]

T1 sequence (P54646 whole entry): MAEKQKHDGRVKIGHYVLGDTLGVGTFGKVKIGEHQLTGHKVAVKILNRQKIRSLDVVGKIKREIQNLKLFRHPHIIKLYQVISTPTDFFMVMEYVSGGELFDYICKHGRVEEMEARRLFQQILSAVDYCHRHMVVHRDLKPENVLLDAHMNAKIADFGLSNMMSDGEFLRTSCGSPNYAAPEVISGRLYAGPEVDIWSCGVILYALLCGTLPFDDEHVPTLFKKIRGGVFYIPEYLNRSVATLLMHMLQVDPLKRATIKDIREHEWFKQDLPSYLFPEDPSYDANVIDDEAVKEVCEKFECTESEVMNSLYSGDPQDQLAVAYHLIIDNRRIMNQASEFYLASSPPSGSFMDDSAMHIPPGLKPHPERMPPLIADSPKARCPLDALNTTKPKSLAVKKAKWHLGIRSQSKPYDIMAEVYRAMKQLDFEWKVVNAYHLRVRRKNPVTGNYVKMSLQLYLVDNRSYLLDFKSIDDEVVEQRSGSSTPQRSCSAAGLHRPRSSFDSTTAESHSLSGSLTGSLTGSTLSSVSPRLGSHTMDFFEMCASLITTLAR
T1 sequence (O43741 whole entry): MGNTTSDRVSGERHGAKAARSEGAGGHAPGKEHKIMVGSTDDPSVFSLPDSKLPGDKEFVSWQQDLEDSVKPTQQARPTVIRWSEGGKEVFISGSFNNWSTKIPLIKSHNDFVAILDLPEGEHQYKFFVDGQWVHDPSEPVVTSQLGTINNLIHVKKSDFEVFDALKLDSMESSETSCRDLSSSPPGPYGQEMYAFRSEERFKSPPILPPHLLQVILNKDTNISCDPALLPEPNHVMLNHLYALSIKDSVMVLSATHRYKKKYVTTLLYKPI
T1 sequence (Q9UGI9 whole entry): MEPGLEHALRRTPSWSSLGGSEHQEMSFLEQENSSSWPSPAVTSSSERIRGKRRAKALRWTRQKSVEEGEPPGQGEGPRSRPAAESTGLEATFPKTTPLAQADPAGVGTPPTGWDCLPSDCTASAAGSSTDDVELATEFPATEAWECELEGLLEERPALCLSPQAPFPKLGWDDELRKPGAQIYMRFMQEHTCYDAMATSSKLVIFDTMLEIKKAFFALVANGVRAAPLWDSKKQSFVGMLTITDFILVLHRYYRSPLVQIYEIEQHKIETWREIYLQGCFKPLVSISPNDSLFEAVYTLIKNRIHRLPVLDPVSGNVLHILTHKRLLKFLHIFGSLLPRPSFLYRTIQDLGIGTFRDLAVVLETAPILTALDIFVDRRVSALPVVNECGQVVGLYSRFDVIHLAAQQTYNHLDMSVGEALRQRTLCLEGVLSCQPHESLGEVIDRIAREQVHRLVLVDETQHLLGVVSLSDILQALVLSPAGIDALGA

As usually defined, the EC50 is the concentration giving half of the maximal effect. For the molecule `COCC(C)(O)C(=O)N1CC(Nc2ncc3c(c2F)C(C)(c2cccc(Cl)c2F)CN(c2nn(C)cc2F)C3=O)C1` (single isomer, unassigned) [compound 46], the Emax came out at 111% and the EC50 was 86.1 nM.

Consider `COCC(C)(O)C(=O)N1CC(Nc2ncc3c(c2F)C(C)(c2cccc(Cl)c2F)CN(c2nn(C)cc2F)C3=O)C1` (single isomer, unassigned) [compound 47], for which the EC50 was 264 nM and the “Assay GMean Asy. Max (%)” value is recorded as 105%.

For `CN1CCC(N2CC(Nc3ncc4c(c3F)[C@@](C)(c3cccc(Cl)c3F)CN(c3nn(C)cc3F)C4=O)C2)C1=O` (single isomer, unassigned) [compound 69], the Emax is 81.6% and the EC50 amounted to 29.2 nM.

In the case of `CN1CCC(N2CC(Nc3ncc4c(c3F)[C@@](C)(c3cccc(Cl)c3F)CN(c3nn(C)cc3F)C4=O)C2)C1=O` (single isomer, unassigned) [compound 70], the EC50 turned out to be 47.6 nM and the “Assay GMean Asy. Max (%)” value was 80.4%.

Turning to `CN1CCCC(N2CC(Nc3ncc4c(c3F)[C@@](C)(c3cccc(Cl)c3F)CN(c3nn(C)cc3F)C4=O)C2)C1=O` (single isomer, unassigned) [compound 71], the Emax is 139% and the EC50 was 19.8 nM.

On to `CN1CCCC(N2CC(Nc3ncc4c(c3F)[C@@](C)(c3cccc(Cl)c3F)CN(c3nn(C)cc3F)C4=O)C2)C1=O` (single isomer, unassigned) [compound 72], for which the EC50 worked out at 42.3 nM and the “Assay GMean Asy. Max (%)” value was determined as 121%.

Turning to `CC1(c2cccc(Cl)c2F)CN(c2ccc3cncn3c2)C(=O)c2cnc(NC3CN(C(=O)[C@@H]4C[C@@H]4F)C3)nc21` (single isomer, unassigned) [compound 79], the Emax came out at 121% and the EC50 is 2830 nM.

As for `CC1(c2cccc(Cl)c2F)CN(c2ncccc2F)C(=O)c2cnc(NC3CN(C(=O)[C@@H]4C[C@@H]4F)C3)nc21` (single isomer, unassigned) [compound 81], the Emax was found to be 123% and the EC50 is above 1060 nM.

Take `CC1(c2cccc(Cl)c2F)CN(c2ncccc2F)C(=O)c2cnc(NC3CN(C(=O)[C@@H]4CC45CCOCC5)C3)nc21` (single isomer, unassigned) [compound 82]: the Emax worked out at 218% and the EC50 amounted to 107 nM.

As to `COC[C@H](C)NC(=O)N1CC(Nc2ncc3c(n2)C(C)(c2cccc(Cl)c2F)CN(c2ncccc2F)C3=O)C1` (single isomer, unassigned) [compound 85], the Emax stood at 141% and the EC50 is 162 nM.

`CC1(c2cccc(Cl)c2F)CN(c2ncccc2F)C(=O)c2cnc(NC3CN(C(=O)N4CCC[C@@H]4CO)C3)nc21` (single isomer, unassigned) [compound 86]: the Emax stood at 106% and the EC50 amounted to 34.6 nM.

As to `CC1(c2cccc(Cl)c2F)CN(c2ncccc2F)C(=O)c2cnc(NC3CN(C(=O)N4C[C@@H]5C[C@H]4CO5)C3)nc21` (single isomer, unassigned) [compound 88], the Emax was determined as 213% and the EC50 was 71.6 nM.

As to `Cn1cc(F)c(N2C[C@](C)(c3cccc(Cl)c3F)c3c(cnc(NC4CN(C(=O)C5CCC(F)(F)CN5)C4)c3F)C2=O)n1` (single isomer, unassigned) [compound 95], the Emax is 78% and the EC50 was 125 nM.

For `Cn1cc(F)c(N2C[C@](C)(c3cccc(Cl)c3F)c3c(cnc(NC4CN(C(=O)C5CCC(F)(F)CN5)C4)c3F)C2=O)n1` (single isomer, unassigned) [compound 96], the EC50 stood at 60.5 nM and the “Assay GMean Asy. Max (%)” value amounted to 85.5%.

For `Cn1cnc(N2C[C@](C)(c3cccc(Cl)c3F)c3c(cnc(NC4CN(C(=O)C5CC5C(F)(F)F)C4)c3F)C2=O)c1` (single isomer, unassigned) [compound 97], the EC50 was 150 nM and the “Assay GMean Asy. Max (%)” value was 25.8%.

For the molecule `Cn1cnc(N2C[C@](C)(c3cccc(Cl)c3F)c3c(cnc(NC4CN(C(=O)C5CC5C(F)(F)F)C4)c3F)C2=O)c1` (single isomer, unassigned) [compound 98], the EC50 was 114 nM and the “Assay GMean Asy. Max (%)” value amounted to 66.2%.

As for `CC1(c2ccc(F)c(Cl)c2F)CN(c2ccc(N)cn2)C(=O)c2cnc(NC3CN(C(=O)[C@@H]4C[C@@H]4F)C3)c(F)c21` (single isomer, unassigned) [compound 102], the Emax was 51.4% and the EC50 was 25.9 nM.

As for `CC1(c2ccc(F)c(Cl)c2F)CN(c2ccc(CO)cn2)C(=O)c2cnc(NC3CN(C(=O)N4C[C@@H]5C[C@H]4CO5)C3)c(F)c21` (single isomer, unassigned) [compound 103], the Emax came out at 113% and the EC50 was found to be 27.5 nM.

As for `Cc1c(F)ccc(C2(C)CN(c3ccc(N)cn3)C(=O)c3cnc(NC4CN(C(=O)[C@@H]5C[C@@H]5F)C4)c(F)c32)c1F` (single isomer, unassigned) [compound 104], the Emax was 49.8% and the EC50 was 32.1 nM.

Take `Cc1c(F)ccc(C2(C)CN(c3ccc(CO)cn3)C(=O)c3cnc(NC4CN(C(=O)[C@@H]5C[C@@H]5F)C4)c(F)c32)c1F` (single isomer, unassigned) [compound 105]: the Emax is 38.4% and the EC50 came to 19.8 nM.

On to `Cc1c(F)ccc(C2(C)CN(c3ccc(CO)cn3)C(=O)c3cnc(NC4CN(C(=O)N5C[C@@H]6C[C@H]5CO6)C4)c(F)c32)c1F` (single isomer, unassigned) [compound 107], for which the Emax was determined as 119% and the EC50 stood at 32.7 nM.

`CN1CCC(F)(C(=O)N2CC[C@@H](Nc3ncc4c(c3F)C(C)(c3cccc(Cl)c3F)CN(c3ncccc3F)C4=O)C2)CC1` (single isomer, unassigned) [compound 109]: the Emax is 81.7% and the EC50 amounted to 76.2 nM.

As to `CC1(c2cccc(Cl)c2F)CN(c2ncccc2F)C(=O)c2cnc(NC3CN(C(=O)[C@](C)(O)C(F)(F)F)C3)nc21` (single isomer, unassigned) [compound 111], the Emax came out at 159% and the EC50 was found to be 342 nM.

Regarding `C[C@]1(c2cccc(Cl)c2F)CN(c2ncccc2F)C(=O)c2cnc(NC3CN(C(=O)C4(O)CC4)C3)c(F)c21` [Example 1, (4R)-4-(3-Chloro-2-fluorophenyl)-5-fluoro-2-(3-fluoropyridin-2-yl)-6-{[1-(1-hydroxycyclopropane-1-carbonyl)azetidin-3-yl]amino}-4-methyl-3,4-dihydro-2,7-naphthyridin-1(2H)-one], the Emax turned out to be 112% and the EC50 was determined as 33.6 nM.

Consider `Cn1cc(F)c(N2C[C@](C)(c3cccc(Cl)c3F)c3c(cnc(NC4CN(C(=O)[C@@H]5C[C@@H]5F)C4)c3F)C2=O)n1` [Example 2, (4R)-4-(3-chloro-2-fluorophenyl)-5-fluoro-6-({1-[(1S,2S)-2-fluorocyclopropane-1-carbonyl]azetidin-3-yl}amino)-2-(4-fluoro-1-methyl-1H-pyrazol-3-yl)-4-methyl-3,4-dihydro-2,7-naphthyridin-1(2H)-one], for which the Emax amounted to 81.7% and the EC50 turned out to be 29.9 nM.
